Measured values from article PMC7572570 (Clinical cancer research : an official journal of the …, 2020).
Values joined by “and” are separate entries in the source; they are usually repeats but may differ in a detail not shown here. Identical values can stand only once. Like-named read-outs stand apart in the source and are kept apart here.

Assays:
clinical = details: human, plasma
[1] = population PK analysis in patients with CTCL and PTCL; cited from earlier work
[2] = in vivo
[3] = Safety, dose-limiting toxicity and treatment-emergent adverse events
[4] = system: select advanced solid tumors or hematologic malignancies; assay: Treatment duration and antitumor activity; type: in vivo, human; details: all cohorts, heavily pre-treated population with liver dysfunction
[5] = Severe (D) n=6, 5 mg/m^2, treatment-related TEAE, Cycle 1
[6] = Total n=31, all cohorts, treatment-related TEAE, Cycle 1
[7] = mild hepatic impairment 14 mg/m^2 vs normal 14 mg/m^2
[8] = moderate hepatic impairment 7 mg/m^2 vs normal 14 mg/m^2
[9] = patients who did not experience a DLT
[10] = severe hepatic impairment 5 mg/m^2 vs normal 14 mg/m^2
[11] = the two patients who had DLTs (individual values)

C/C=C1\NC(=O)[C@H]2CSSCC/C=C/[C@H](CC(=O)N[C@H](C(C)C)C(=O)N2)OC(=O)[C@H](C(C)C)NC1=O [romidepsin]
clearance (clinical; intravenous, clearance, range, patients who did not experience a DLT): 33.3 to 557 mL/min
half-life (clinical; iv, 5 mg/m2): 871 ± 255 min
clearance (clinical; iv, 5 mg/m2, Cl (systemic clearance), Severe Cohort D, 5 mg/m^2 IV, geometric mean ± SD): 80 mL/min
Vd (clinical; iv, 5 mg/m2, V (volume of distribution), Severe Cohort D, 5 mg/m^2 IV, geometric mean ± SD): 15.4 ± 5.1 L
half-life (clinical; iv, 7 mg/m2): 845 ± 233 min
clearance (clinical; iv, 7 mg/m2, Cl (systemic clearance), Moderate Cohort C, 7 mg/m^2 IV, geometric mean ± SD): 115 mL/min
Vd (clinical; iv, 7 mg/m2, V (volume of distribution), Moderate Cohort C, 7 mg/m^2 IV, geometric mean ± SD): 19 ± 6.4 L
half-life (clinical; iv, 14 mg/m2): 668 ± 126 min
clearance (clinical; iv, 14 mg/m2, Cl (systemic clearance), Mild Cohort B, 14 mg/m^2 IV, geometric mean ± SD): 160 mL/min
clearance (clinical; iv, 14 mg/m2, Cl (systemic clearance), Normal Cohort A, 14 mg/m^2 IV, geometric mean ± SD): 270 mL/min
Vd (clinical; iv, 14 mg/m2, V (volume of distribution), Mild Cohort B, 14 mg/m^2 IV, geometric mean ± SD): 17.1 ± 2.5 L
Vd (clinical; iv, 14 mg/m2, V (volume of distribution), Normal Cohort A, 14 mg/m^2 IV, geometric mean ± SD): 20.7 ± 12.5 L
effect of mild hepatic impairment on exposure [1]: no effect on romidepsin exposure
Alkaline phosphatase increased, Any Grade ([2]; human): 1 (3%) n (%)
Anorexia, Any Grade ([2]; human): 11 (35%) n (%)
ECG changes (QT, ST-T changes), number of patients ([2]; human): 4
ECG changes (QT, ST-T changes), patients ([2]; human): 23%
Aspartate aminotransferase increased, Any Grade ([2]; human, 28 day): 1 (3%) n (%)
Asthenia, Any Grade ([2]; human, 28 day): 3 (10%) n (%)
Bradycardia, Any Grade ([2]; human, 28 day): 1 (3%) n (%)
Creatinine increased, Any Grade ([2]; human, 28 day): 2 (6%) n (%)
aPTT increased, Any Grade ([2]; human, 28 day): 1 (3%) n (%)
decreased white blood cell counts, all grade treatment-emergent adverse event ([2]; human, 28 day): 55%
subjects who discontinued before the end of Cycle 1 due to an adverse event ([2]; human, 28 day): 3
vomiting, all grade treatment-emergent adverse event ([2]; human, 28 day): 42%
Abdominal distension, Any Grade ([2]; human, 28 days): 1 (3%) n (%)
Abdominal pain, Any Grade ([2]; human, 28 days): 1 (3%) n (%)
Anemia, Any Grade ([2]; human, 28 days): 9 (29%) n (%)
Anemia, Grade 3 or 4 ([2]; human, 28 days): 1 (3%) n (%)
Diarrhea, Any Grade ([2]; human, 28 days): 2 (6%) n (%)
Dizziness, Any Grade ([2]; human, 28 days): 2 (6%) n (%)
Dry mouth, Any Grade ([2]; human, 28 days): 1 (3%) n (%)
Dry skin, Any Grade ([2]; human, 28 days): 1 (3%) n (%)
Dysgeusia, Any Grade ([2]; human, 28 days): 3 (10%) n (%)
Dyspepsia, Any Grade ([2]; human, 28 days): 1 (3%) n (%)
Fatigue, Any Grade ([2]; human, 28 days): 13 (42%) n (%)
Fatigue, Grade 3 or 4 ([2]; human, 28 days): 2 (6%) n (%)
Gastric haemorrhage, Any Grade ([2]; human, 28 days): 1 (3%) n (%)
Gastric haemorrhage, Grade 3 or 4 ([2]; human, 28 days): 1 (3%) n (%)
Generalized pain, Any Grade ([2]; human, 28 days): 1 (3%) n (%)
Glossodynia, Any Grade ([2]; human, 28 days): 1 (3%) n (%)
Headache, Any Grade ([2]; human, 28 days): 4 (13%) n (%)
Hypercalcemia, Any Grade ([2]; human, 28 days): 1 (3%) n (%)
Hyperuricemia, Any Grade ([2]; human, 28 days): 1 (3%) n (%)
Hypoalbuminemia, Any Grade ([2]; human, 28 days): 3 (10%) n (%)
Hypocalcemia, Any Grade ([2]; human, 28 days): 1 (3%) n (%)
Hypoglycemia, Any Grade ([2]; human, 28 days): 1 (3%) n (%)
Hypokalemia, Any Grade ([2]; human, 28 days): 1 (3%) n (%)
Hypomagnesmia, Any Grade ([2]; human, 28 days): 1 (3%) n (%)
Hyponatremia, Any Grade ([2]; human, 28 days): 4 (13%) n (%)
Hypotension, Any Grade ([2]; human, 28 days): 1 (3%) n (%)
Hypotension, Grade 3 or 4 ([2]; human, 28 days): 1 (3%) n (%)
Muscle cramping, Any Grade ([2]; human, 28 days): 1 (3%) n (%)
Nausea, Any Grade ([2]; human, 28 days): 21 (68%) n (%)
Nausea, Grade 3 or 4 ([2]; human, 28 days): 2 (6%) n (%)
Peripheral neuropathy, Any Grade ([2]; human, 28 days): 2 (6%) n (%)
Photophobia, Any Grade ([2]; human, 28 days): 1 (3%) n (%)
QTc prolongation, Any Grade ([2]; human, 28 days): 7 (23%) n (%)
Tachycardia, Any Grade ([2]; human, 28 days): 2 (6%) n (%)
Thrombocytopenia, Any Grade ([2]; human, 28 days): 16 (52%) n (%)
Thrombocytopenia, Grade 3 or 4 ([2]; human, 28 days): 1 (3%) n (%)
Vomiting, Any Grade ([2]; human, 28 days): 13 (42%) n (%)
WBC decrease, Any Grade ([2]; human, 28 days): 17 (55%) n (%)
WBC decrease, Grade 3 or 4 ([2]; human, 28 days): 7 (23%) n (%)
Weight loss, Any Grade ([2]; human, 28 days): 1 (3%) n (%)
Torsades de Pointes or other treatment-emergent arrhythmia [2]: no cases of Torsades de Pointes or other treatment-emergent arrhythmia
dose-limiting toxicity [2]: without DLT
dose-limiting toxicity, patients [2]: two patients
Flu-like symptoms (malaise), Any Grade [3, 5]: 1 (17%) n (%)
Infections, Any Grade [3, 5]: 1 (17%) n (%)
Flu-like symptoms (malaise), Any Grade [3, 6]: 3 (10%) n (%)
Infections, Any Grade [3, 6]: 4 (13%) n (%)
Infections, Grade 3 or 4 [3, 6]: 1 (3%) n (%)
subjects who discontinued before the end of Cycle 1 due to death ([3]; all cohorts, n): 5
plasma concentrations at last time point (48 hours after initiation of the infusion): still quantifiable at the 48-hour time point
T1/2 (terminal half-life) (Mild Cohort B, 14 mg/m^2 IV, geometric mean ± SD): 13.55±1.41 (7) hr
change of clearance with hepatic function (compared to the normal hepatic function cohort): clearance decreased with worsening hepatic function
geometric mean AUCINF as % of normal hepatic function cohort [7]: ~144%
geometric mean Cmax as % of normal hepatic function cohort [7]: approximately 115%
geometric mean AUCINF as % of normal hepatic function cohort [8]: 114%
geometric mean Cmax as % of normal hepatic function cohort [8]: 96%
dose-normalized AUCINF (AUCINF/D), range [9]: 29.9 to 507.4 ng·h/mL/mg
dose-normalized Cmax (Cmax/D), range [9]: 7.3 to 84.6 ng/mL/mg
time at which plasma concentrations reached a plateau (post infusion initiation (first sample collected), 4-hour IV infusion): approximately 1 hour
geometric mean AUCINF as % of normal hepatic function cohort [10]: 116%
geometric mean Cmax as % of normal hepatic function cohort [10]: approximately 95%
clearance [11]: 6.8 L/h
dose-normalized AUCINF (AUCINF/D) [11]: 192.4 ng·h/mL/mg and 146.6 ng·h/mL/mg
dose-normalized Cmax (Cmax/D) [11]: 32.1 ng/mL/mg and 40.5 ng/mL/mg
stable disease as best clinical response [4]: 12 patients
